Test results taken from patent US7741327B2 (Hoffmann-La Roche Inc., priority 2008, dated 2010).

target: T1, Recombinant human liver GK1 (GST-GK) (Homo sapiens, UniProt P35557); test: In vitro glucokinase activity (G6PDH-coupled NADH assay); format: biochemical; details: 30° C., 5 mM D-glucose, 10% DMSO
T1 construct: made in house; host or cells: E. coli
T1 sequence (P35557 1-466 isoform P35557-2): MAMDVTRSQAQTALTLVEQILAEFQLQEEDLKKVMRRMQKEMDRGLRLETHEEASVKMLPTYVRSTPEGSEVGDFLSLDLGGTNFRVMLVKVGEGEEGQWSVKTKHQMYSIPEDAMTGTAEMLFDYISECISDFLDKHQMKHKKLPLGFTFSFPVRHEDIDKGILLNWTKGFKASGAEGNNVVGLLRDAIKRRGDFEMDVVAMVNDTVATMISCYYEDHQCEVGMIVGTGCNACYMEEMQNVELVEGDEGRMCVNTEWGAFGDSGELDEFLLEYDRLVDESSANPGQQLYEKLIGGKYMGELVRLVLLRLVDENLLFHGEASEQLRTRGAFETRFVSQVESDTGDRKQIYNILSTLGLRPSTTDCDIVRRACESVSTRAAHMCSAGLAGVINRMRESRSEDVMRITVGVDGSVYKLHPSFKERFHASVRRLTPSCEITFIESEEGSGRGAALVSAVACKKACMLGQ
Summary of the method: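 Activation measured as the rate of OD340 rise from G6PDH-coupled NADH production, relative to 10% DMSO control, reported as SC1.5 (concentration for 50% activity increase). Conditions: 30° C, pH 7.1 Hepes, 5 mM glucose, 1 mM ATP, purified recombinant GST-human GK1, compound preincubated 10 min before enzyme addition.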

In order of falling “SC1.5 (concentration of activator that produced a 50% increase in the activity of GK)” value:
1. CC(C)C[C@@H](C(=O)Nc1ccn(C[C@@H](N)CO)n1)N1CC(Oc2ccccc2Cl)=CC1=O [Example 180, (S)-2-[4-(2-chloro-phenoxy)-2-oxo-2,5-dihydro-pyrrol-1-yl]-4-methyl-pentanoic acid [1-((R)-2-amino-3-hydroxy-propyl)-1H-pyrazol-3-yl]-amide]  6.393 µM
2. COC1=CC(=O)N([C@@H](CC2CCCC2)C(=O)Nc2ccc(C(=O)O)cn2)C1 [Example 11, 6-[(S)-3-Cyclopentyl-2-(4-methoxy-2-oxo-2,5-dihydro-pyrrol-1-yl)-propionylamino]-nicotinic acid]  3.99 µM
3. COC1=CC(=O)N([C@@H](CC2CCCC2)C(=O)Nc2ccn(Cc3cccc(C#N)c3)n2)C1 [Example 12, (S)-N-[1-(3-Cyano-benzyl)-1H-pyrazol-3-yl]-3-cyclopentyl-2-(4-methoxy-2-oxo-2,5-dihydro-pyrrol-1-yl)-propionamide]  3.591 µM
4. COC1=CC(=O)N([C@@H](CC2CCCC2)C(=O)Nc2ccn(CC(C)(C)OC)n2)C1 [Example 5, (S)-3-Cyclopentyl-N-[1-(2-methoxy-2-methyl-propyl)-1H-pyrazol-3-yl]-2-(4-methoxy-2-oxo-2,5-dihydro-pyrrol-1-yl)-propionamide]  3.15 µM
5. CC(C)C[C@@H](C(=O)Nc1ccn(C[C@@H]2COC(C)(C)O2)n1)N1CC(Oc2ccccc2Br)=CC1=O [Example 136, (S)-2-[4-(2-Bromo-phenoxy)-2-oxo-2,5-dihydro-pyrrol-1-yl]-4-methyl-pentanoic acid [1-((R)-2,2-dimethyl-[1,3]dioxolan-4-yl-methyl)-1H-pyrazol-3-yl]-amide]  2.013 µM
6. CC(C)OC1=CC(=O)N([C@@H](CC2CCCCC2)C(=O)Nc2ccn(CC(C)(C)O)n2)C1 [Example 25, (S)-3-Cyclohexyl-N-[1-(2-hydroxy-2-methyl-propyl)-1H-pyrazol-3-yl]-2-(4-isopropoxy-2-oxo-2,5-dihydro-pyrrol-1-yl)-propionamide]  1.872 µM
7. COC(=O)c1ccc(NC(=O)[C@H](CC2CCCC2)N2CC(OC)=CC2=O)nc1 [Example 10, 6-[(S)-3-Cyclopentyl-2-(4-methoxy-2-oxo-2,5-dihydro-pyrrol-1-yl)-propionylamino]-nicotinic acid methyl ester]  1.855 µM
8. CC(C)OC1=CC(=O)N([C@@H](CC2CCCC2)C(=O)Nc2ccn(CC(C)(C)O)n2)C1 [Example 15, (S)-3-Cyclopentyl-N-[1-(2-hydroxy-2-methyl-propyl)-1H-pyrazol-3-yl]-2-(4-isopropoxy-2-oxo-2,5-dihydro-pyrrol-1-yl)-propionamide]  1.832 µM
9. COC1=CC(=O)N([C@@H](CC2CCCC2)C(=O)Nc2ncc(Cl)s2)C1 [Example 2, (S)-N-(5-Chloro-thiazol-2-yl)-3-cyclopentyl-2-(4-methoxy-2-oxo-2,5-dihydro-pyrrol-1-yl)-propionamide]  1.672 µM
10. COc1cccc(OC2=CC(=O)N([C@H](CC3CCOCC3)C(=O)Nc3ccn(CC(C)(C)O)n3)C2)c1Cl [Example 52, (R)-2-[4-(2-Chloro-3-methoxy-phenoxy)-2-oxo-2,5-dihydro-pyrrol-1-yl]-N-[1-(2-hydroxy-2-methyl-propyl)-1H-pyrazol-3-yl]-3-(tetrahydro-pyran-4-yl)-propionamide]  1.027 µM
11. CC(C)C[C@@H](C(=O)Nc1ccn(C[C@@H](O)CO)n1)N1CC(Oc2cccc(C(F)(F)F)c2)=CC1=O [Example 96, (S)-4-Methyl-2-[2-oxo-4-(3-trifluoromethyl-phenoxy)-2,5-dihydro-pyrrol-1-yl]-pentanoic acid [1-((R)-2,3-dihydroxy-propyl)-1H-pyrazol-3-yl]-amide]  0.97 µM
12. CC1(C)OC[C@@H](Cn2ccc(NC(=O)[C@H](Cc3c(F)cccc3F)N3CC(Oc4ccccc4Cl)=CC3=O)n2)O1 [Example 184, (S)-2-[4-(2-chloro-phenoxy)-2-oxo-2,5-dihydro-pyrrol-1-yl]-N-[1-((R)-2,2-dimethyl-[1,3]dioxolan-4-yl-methyl)-1H-pyrazol-3-yl]-3-(2,6-difluoro-phenyl)-propionamide]  0.617 µM
13. CC(C)C[C@@H](C(=O)Nc1ccn(C[C@@H]2COC(C)(C)O2)n1)N1CC(Oc2ccccc2Cl)=CC1=O [Example 65]  0.527 µM
14. CC[C@H](C)CC(C(=O)Nc1ccn(C[C@@H]2COC(C)(C)O2)n1)N1CC(Oc2ccccc2Cl)=CC1=O (mixture of isomers) [Example 248, (S)-2-[4-(2-Chloro-phenoxy)-2-oxo-2,5-dihydro-pyrrol-1-yl]-4-methyl-hexanoic acid [1-((R)-2,2-dimethyl-[1,3]dioxolan-4-ylmethyl)-1H-pyrazol-3-yl]-amide]  0.304 µM
15. CC(C)C[C@@H](C(=O)Nc1ccn(C[C@@H](O)CO)n1)N1CC(Oc2ccccc2F)=CC1=O [Example 166, (S)-2-[4-(2-Fluoro-phenoxy)-2-oxo-2,5-dihydro-pyrrol-1-yl]-4-methyl-pentanoic acid [1-((R)-2,3-dihydroxy-propyl)-1H-pyrazol-3-yl]-amide]  0.239 µM
16. C=Cc1cccc(OC2=CC(=O)N([C@@H](CC(C)C)C(=O)Nc3ccn(C[C@@H](O)CO)n3)C2)c1F [Example 145, (S)-2-[4-(2-Fluoro-3-vinyl-phenoxy)-2-oxo-2,5-dihydro-pyrrol-1-yl]-4-methyl-pentanoic acid [1-((R)-2,3-dihydroxy-propyl)-1H-pyrazol-3-yl]-amide]  0.134 µM
17. Cc1cccc(OC2=CC(=O)N([C@@H](CC(C)C)C(=O)Nc3ccn(C[C@@H](O)CO)n3)C2)c1F [Example 131, (S)-2-[4-(2-Fluoro-3-methyl-phenoxy)-2-oxo-2,5-dihydro-pyrrol-1-yl]-4-methyl-pentanoic acid [1-((R)-2,3-dihydroxy-propyl)-1H-pyrazol-3-yl]-amide]  0.117 µM
18. CC(C)(O)Cn1ccc(NC(=O)C(CC2CCOCC2)N2CC(Oc3ccccc3Br)=CC2=O)n1 (stereo not shown) [Example 261, 2-[4-(2-Bromo-phenoxy)-2-oxo-2,5-dihydro-pyrrol-1-yl]-N-[1-(2-hydroxy-2-methyl-propyl)-1H-pyrazol-3-yl]-3-(tetrahydro-pyran-4-yl)-propionamide]  0.073 µM
19. Cl.O=C(Nc1cnccn1)[C@H](CC1CCCCC1)N1CC(Oc2c(F)cccc2Cl)=CC1=O [Example 71, (S)-2-[4-(2-Chloro-6-fluoro-phenoxy)-2-oxo-2,5-dihydro-pyrrol-1-yl]-3-cyclohexyl-N-pyrazin-2-yl-propionamide Hydrochloride]  0.058 µM
20. O=C(Nc1ccn(CCO)n1)[C@H](CC1CCCC1)N1CC(Oc2c(F)cccc2F)=CC1=O [Example 89, (S)-3-Cyclopentyl-2-[4-(2,6-difluoro-phenoxy)-2-oxo-2,5-dihydro-pyrrol-1-yl]-N-[1-(2-hydroxy-ethyl)-1H-pyrazol-3-yl]-propionamide]  0.05 µM
21. CC(C)(O)Cn1ccc(NC(=O)C(C[C@H]2C[C@H](C)C2)N2CC(Oc3ccccc3Cl)=CC2=O)n1 (stereo partly drawn) [Example 214, 2-[4-(2-Chloro-phenoxy)-2-oxo-2,5-dihydro-pyrrol-1-yl]-N-[1-(2-hydroxy-2-methyl-propyl)-1H-pyrazol-3-yl]-3-(trans-3-methyl-cyclobutyl)-propionamide]  0.043 µM
22. COc1ccccc1OC1=CC(=O)N([C@@H](CC2CCCCC2)C(=O)Nc2ccn(C)n2)C1 [Example 29, (S)-3-Cyclohexyl-N-(1-methyl-1H-pyrazol-3-yl)-2-[4-(2-methoxy-phenoxy)-2-oxo-2,5-dihydro-pyrrol-1-yl]-propionamide]  0.033 µM
23. CCOc1cccc(OC2=CC(=O)N([C@@H](CC(C)C)C(=O)Nc3ccn(C[C@@H](O)CO)n3)C2)c1F [Example 115, (S)-2-[4-(3-Ethoxy-2-fluoro-phenoxy)-2-oxo-2,5-dihydro-pyrrol-1-yl]-4-methyl-pentanoic acid [1-((R)-2,3-dihydroxy-propyl)-1H-pyrazol-3-yl]-amide]  0.027 µM

For `COc1ccc(Cc2nsc(NC(=O)[C@H](CC(C)C)N3CC(Oc4ccccc4Cl)=CC3=O)n2)cc1` [Example 109, (S)-2-[4-(2-Chloro-phenoxy)-2-oxo-2,5-dihydro-pyrrol-1-yl]-4-methyl-pentanoic acid [3-(4-methoxy-benzyl)-[1,2,4]thiadiazol-5-yl]-amide], the “SC1.5 (concentration of activator that produced a 50% increase in the activity of GK)” value was greater than 30 µM.

same assay, conditions: at 30 μM test compound

For `COc1ccc(Cc2nsc(NC(=O)[C@H](CC(C)C)N3CC(Oc4ccccc4Cl)=CC3=O)n2)cc1` [Example 109, (S)-2-[4-(2-Chloro-phenoxy)-2-oxo-2,5-dihydro-pyrrol-1-yl]-4-methyl-pentanoic acid [3-(4-methoxy-benzyl)-[1,2,4]thiadiazol-5-yl]-amide], the “fold act. @ 30 μM” value was 1.3 fold.
